From ChEMBL document CHEMBL2163241, “Human neutrophil elastase phosphonic inhibitors with improved potency of action” (J Med Chem, 2012)

Legend:
[1] = molecular target: Pancreatic elastase (Sus scrofa) (UniProt P08419+P00772); assay: Inhibition of porcine pancreatic elastase at 25 uM assessed as Kinact/Ki ratio incubated for 15 mins by spectrofluorometry; assay type: protein assay
[2] = molecular target: T1, Neutrophil elastase (Homo sapiens) (UniProt P08246); assay: Inhibition of human leukocyte elastase at 25 uM assessed as Kinact/Ki ratio incubated for 15 mins by spectrofluorometry
T1 sequence (whole entry): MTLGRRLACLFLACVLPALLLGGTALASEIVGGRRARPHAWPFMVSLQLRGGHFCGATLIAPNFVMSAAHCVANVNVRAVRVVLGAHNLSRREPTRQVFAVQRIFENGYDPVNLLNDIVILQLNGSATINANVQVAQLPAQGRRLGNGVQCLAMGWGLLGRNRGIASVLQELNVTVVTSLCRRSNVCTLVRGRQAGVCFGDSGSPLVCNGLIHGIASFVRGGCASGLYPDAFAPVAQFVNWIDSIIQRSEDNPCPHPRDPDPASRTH

[3] = Inhibition of chymotrypsin at 25 uM assessed as Kinact/Ki ratio incubated for 15 mins by spectrofluorometry
[4] = Inhibition of trypsin at 25 uM assessed as Kinact/Ki ratio incubated for 15 mins by spectrofluorometry

CC(C)CC(NC(=O)[C@@H]1CCCN1C(=O)[C@@H](NC(=O)OC(C)(C)C)C(C)C)P(=O)(Oc1ccc(Cl)cc1)Oc1ccc(Cl)cc1 (mixture of isomers)
Ratio [1]: 12800 M⁻¹ s⁻¹ | Ratio [2]: 3400 M⁻¹ s⁻¹ | Ratio [3]: 18100 M⁻¹ s⁻¹ | Ratio [4]: < 50 M⁻¹ s⁻¹

CCC(NC(=O)[C@@H]1CCCN1C(=O)[C@@H](NC(=O)OC(C)(C)C)C(C)C)P(=O)(Oc1ccc(OC)cc1)Oc1ccc(OC)cc1 (mixture of isomers)
Ratio [1]: 9900 M⁻¹ s⁻¹ | Ratio [2]: 11000 M⁻¹ s⁻¹ | Ratio [3]: < 50 M⁻¹ s⁻¹ | Ratio [4]: < 50 M⁻¹ s⁻¹

CSc1ccc(OP(=O)(Oc2ccc(SC)cc2)C(NC(=O)[C@@H]2CCCN2C(=O)CNC(=O)OC(C)(C)C)C(C)C)cc1 (mixture of isomers)
Ratio [1]: 5100 M⁻¹ s⁻¹ | Ratio [2]: 35000 M⁻¹ s⁻¹ | Ratio [3]: < 50 M⁻¹ s⁻¹ | Ratio [4]: < 50 M⁻¹ s⁻¹

CC[C@H](C)[C@H](NC(=O)OCc1ccccc1)C(=O)N1CCC[C@H]1C(=O)NC(C(C)C)P(=O)(Oc1ccc(SC)cc1)Oc1ccc(SC)cc1 (mixture of isomers)
Ratio [1]: 1800 M⁻¹ s⁻¹ | Ratio [2]: 145000 M⁻¹ s⁻¹ | Ratio [3]: 1600 M⁻¹ s⁻¹ | Ratio [4]: < 50 M⁻¹ s⁻¹

CCC(NC(=O)[C@@H]1CCCN1C(=O)[C@@H](NC(=O)OC(C)(C)C)C(C)C)P(=O)(Oc1ccc(C(C)C)cc1)Oc1ccc(C(C)C)cc1 (mixture of isomers)
Ratio [1]: 580 M⁻¹ s⁻¹ | Ratio [2]: < 50 M⁻¹ s⁻¹ | Ratio [3]: < 50 M⁻¹ s⁻¹ | Ratio [4]: < 50 M⁻¹ s⁻¹

CSc1ccc(OP(=O)(Oc2ccc(SC)cc2)[C@H](NC(=O)[C@@H]2CCCN2C(=O)[C@@H](NC(=O)Cn2ccc(=O)n(CC(=O)O)c2=O)C(C)C)C(C)C)cc1
Ratio [1]: 200 M⁻¹ s⁻¹ | Ratio [2]: 2000 M⁻¹ s⁻¹ | Ratio [3]: < 50 M⁻¹ s⁻¹ | inhibition [4]: < 5%

CSCC[C@H](NC(=O)OCc1ccccc1)C(=O)N1CCC[C@H]1C(=O)NC(C(C)C)P(=O)(Oc1ccc(SC)cc1)Oc1ccc(SC)cc1 (mixture of isomers)
Ratio [1]: 6300 M⁻¹ s⁻¹ | Ratio [2]: 223000 M⁻¹ s⁻¹ | Ratio [3]: 3700 M⁻¹ s⁻¹ | Ratio [4]: < 50 M⁻¹ s⁻¹

CC(C)c1ccc(OP(=O)(Oc2ccc(C(C)C)cc2)C(C)NC(=O)[C@@H]2CCCN2C(=O)[C@@H](NC(=O)OC(C)(C)C)C(C)C)cc1 (mixture of isomers)
Ratio [1]: 300 M⁻¹ s⁻¹ | Ratio [2]: < 50 M⁻¹ s⁻¹ | Ratio [3]: < 50 M⁻¹ s⁻¹ | inhibition [4]: < 5%

CSc1ccc(OP(=O)(Oc2ccc(SC)cc2)[C@H](NC(=O)[C@@H]2CCCN2C(=O)[C@@H](NC(=O)Cn2cc(C)c(=O)n(CC(=O)O)c2=O)C(C)C)C(C)C)cc1
Ratio [1]: 300 M⁻¹ s⁻¹ | Ratio [2]: 4100 M⁻¹ s⁻¹ | Ratio [3]: < 50 M⁻¹ s⁻¹ | inhibition [4]: < 5%

CSc1ccc(OP(=O)(Oc2ccc(SC)cc2)C(C)NC(=O)[C@@H]2CCCN2C(=O)[C@@H](NC(=O)OC(C)(C)C)C(C)C)cc1 (mixture of isomers)
Ratio [1]: 11400 M⁻¹ s⁻¹ | Ratio [2]: 3500 M⁻¹ s⁻¹ | Ratio [3]: < 50 M⁻¹ s⁻¹ | Ratio [4]: < 50 M⁻¹ s⁻¹

CSc1ccc(OP(=O)(Oc2ccc(SC)cc2)[C@H](NC(=O)[C@@H]2CCCN2C(=O)[C@@H](NC(=O)COc2ccc(OCC(=O)O)cc2)C(C)C)C(C)C)cc1
Ratio [1]: 85 M⁻¹ s⁻¹ | Ratio [2]: 1550 M⁻¹ s⁻¹ | Ratio [3]: < 50 M⁻¹ s⁻¹ | Ratio [4]: < 50 M⁻¹ s⁻¹

CSc1ccc(OP(=O)(Oc2ccc(SC)cc2)C(NC(=O)[C@@H]2CCCN2C(=O)[C@H](CC(C)C)NC(=O)OCc2ccccc2)C(C)C)cc1 (mixture of isomers)
Ratio [1]: 1000 M⁻¹ s⁻¹ | Ratio [2]: 86200 M⁻¹ s⁻¹ | Ratio [3]: 800 M⁻¹ s⁻¹ | inhibition [4]: < 5%

CSc1ccc(OP(=O)(Oc2ccc(SC)cc2)[C@@H](NC(=O)[C@@H]2CCCN2C(=O)[C@@H](NC(=O)OC(C)(C)C)C(C)C)C(C)C)cc1
Ratio [1]: 22300 M⁻¹ s⁻¹ | Ratio [2]: 431000 M⁻¹ s⁻¹ | Ratio [3]: 850 M⁻¹ s⁻¹ | Ratio [4]: < 50 M⁻¹ s⁻¹

CCc1ccc(OP(=O)(Oc2ccc(CC)cc2)C(NC(=O)[C@@H]2CCCN2C(=O)[C@@H](NC(=O)OC(C)(C)C)C(C)C)C(C)C)cc1 (mixture of isomers)
Ratio [1]: 6000 M⁻¹ s⁻¹ | Ratio [2]: 6800 M⁻¹ s⁻¹ | inhibition [3]: < 5% | inhibition [4]: < 5%

CSc1ccc(OP(=O)(Oc2ccc(SC)cc2)[C@@H](NC(=O)[C@@H]2CCCN2C(=O)[C@@H](NC(=O)Cn2cc(C)c(=O)n(CC(=O)O)c2=O)C(C)C)C(C)C)cc1
Ratio [1]: 243000 M⁻¹ s⁻¹ | Ratio [2]: 1.76e+06 M⁻¹ s⁻¹ | Ratio [3]: 44700 M⁻¹ s⁻¹ | Ratio [4]: 280 M⁻¹ s⁻¹

COc1ccc(OP(=O)(Oc2ccc(OC)cc2)C(NC(=O)[C@@H]2CCCN2C(=O)[C@@H](NC(=O)OC(C)(C)C)C(C)C)C(C)C)cc1 (mixture of isomers)
Ratio [1]: 19500 M⁻¹ s⁻¹ | Ratio [2]: 42700 M⁻¹ s⁻¹ | Ratio [3]: < 50 M⁻¹ s⁻¹ | Ratio [4]: < 50 M⁻¹ s⁻¹

CSc1ccc(OP(=O)(Oc2ccc(SC)cc2)C(NC(=O)[C@@H]2CCCN2C(=O)[C@H](C)NC(=O)OCc2ccccc2)C(C)C)cc1 (mixture of isomers)
Ratio [1]: 12000 M⁻¹ s⁻¹ | Ratio [2]: 144000 M⁻¹ s⁻¹ | Ratio [3]: 1500 M⁻¹ s⁻¹ | Ratio [4]: < 50 M⁻¹ s⁻¹

CC(C)c1ccc(OP(=O)(Oc2ccc(C(C)C)cc2)C(NC(=O)[C@@H]2CCCN2C(=O)[C@@H](NC(=O)OC(C)(C)C)C(C)C)C(C)C)cc1 (mixture of isomers)
Ratio [1]: 2000 M⁻¹ s⁻¹ | Ratio [2]: 4200 M⁻¹ s⁻¹ | Ratio [3]: < 50 M⁻¹ s⁻¹ | Ratio [4]: < 50 M⁻¹ s⁻¹

COc1ccc(C(=O)N[C@H](C(=O)N2CCC[C@H]2C(=O)N[C@H](C(C)C)P(=O)(Oc2ccc(SC)cc2)Oc2ccc(SC)cc2)C(C)C)cc1
Ratio [1]: < 50 M⁻¹ s⁻¹ | Ratio [2]: 4800 M⁻¹ s⁻¹ | Ratio [3]: < 50 M⁻¹ s⁻¹ | inhibition [4]: < 5%

CCCC(NC(=O)[C@@H]1CCCN1C(=O)[C@@H](NC(=O)OC(C)(C)C)C(C)C)P(=O)(Oc1ccccc1)Oc1ccccc1 (mixture of isomers)
Ratio [1]: 10900 M⁻¹ s⁻¹ | Ratio [2]: 2600 M⁻¹ s⁻¹ | Ratio [3]: 140 M⁻¹ s⁻¹ | Ratio [4]: < 50 M⁻¹ s⁻¹

CCc1ccc(OP(=O)(Oc2ccc(CC)cc2)C(CC)NC(=O)[C@@H]2CCCN2C(=O)[C@@H](NC(=O)OC(C)(C)C)C(C)C)cc1 (mixture of isomers)
Ratio [1]: 4210 M⁻¹ s⁻¹ | Ratio [2]: 1380 M⁻¹ s⁻¹ | Ratio [3]: < 50 M⁻¹ s⁻¹ | Ratio [4]: < 50 M⁻¹ s⁻¹

CSc1ccc(OP(=O)(Oc2ccc(SC)cc2)C(CC(C)C)NC(=O)[C@@H]2CCCN2C(=O)[C@@H](NC(=O)OC(C)(C)C)C(C)C)cc1 (mixture of isomers)
Ratio [1]: 11200 M⁻¹ s⁻¹ | Ratio [2]: 4100 M⁻¹ s⁻¹ | Ratio [3]: 21900 M⁻¹ s⁻¹ | Ratio [4]: 280 M⁻¹ s⁻¹

CSc1ccc(OP(=O)(Oc2ccc(SC)cc2)C(NC(=O)[C@@H]2CCCN2C(=O)[C@@H](C)NC(=O)OC(C)(C)C)C(C)C)cc1 (mixture of isomers)
Ratio [1]: 900 M⁻¹ s⁻¹ | Ratio [2]: 39400 M⁻¹ s⁻¹ | Ratio [3]: < 50 M⁻¹ s⁻¹ | Ratio [4]: < 50 M⁻¹ s⁻¹

CSc1ccc(OP(=O)(Oc2ccc(SC)cc2)[C@H](NC(=O)[C@@H]2CCCN2C(=O)[C@@H](NC(=O)OC(C)(C)C)C(C)C)C(C)C)cc1
Ratio [1]: < 50 M⁻¹ s⁻¹ | Ratio [2]: 2650 M⁻¹ s⁻¹ | Ratio [3]: < 50 M⁻¹ s⁻¹ | inhibition [4]: < 5%

CCCC(NC(=O)[C@@H]1CCCN1C(=O)[C@@H](NC(=O)OC(C)(C)C)C(C)C)P(=O)(Oc1ccc(C(C)(C)C)cc1)Oc1ccc(C(C)(C)C)cc1 (mixture of isomers)
Ratio [1]: < 50 M⁻¹ s⁻¹ | Ratio [2]: < 50 M⁻¹ s⁻¹ | inhibition [3]: < 5% | inhibition [4]: < 5%

CC(C)C(NC(=O)[C@@H]1CCCN1C(=O)[C@@H](NC(=O)OC(C)(C)C)C(C)C)P(=O)(Oc1ccc(C(C)(C)C)cc1)Oc1ccc(C(C)(C)C)cc1 (mixture of isomers)
Ratio [1]: 700 M⁻¹ s⁻¹ | Ratio [2]: 3450 M⁻¹ s⁻¹ | inhibition [3]: < 5% | inhibition [4]: < 5%

CCc1ccc(OP(=O)(Oc2ccc(CC)cc2)C(C)NC(=O)[C@@H]2CCCN2C(=O)[C@@H](NC(=O)OC(C)(C)C)C(C)C)cc1 (mixture of isomers)
Ratio [1]: 1100 M⁻¹ s⁻¹ | Ratio [2]: 870 M⁻¹ s⁻¹ | Ratio [3]: < 50 M⁻¹ s⁻¹ | inhibition [4]: < 5%
